Experimental data reported in article PMC11117333, “Design and synthesis of new dihydropyrimidine/sulphonamide hybrids as promising anti-inflammatory agents via dual mPGES-1/5-LOX inhibition” (Frontiers in Chemistry, 2024).
“And” between values parts separate entries of the source, which are not always exact repeats. Identical values can stand only once. Marks after values point to notes of the source that are not given here.

Legend:
TNF-α = experiment: Rat serum TNF-α after carrageenan (ELISA); assay type: in vivo; settings: for TNFα serum concentration: mean ± SE
Text: (§1) In this study, specializing ELISA kits were used to determine the concentration of inflammatory cytokines PGE2, IL-6, and TNF-α. The study’s findings were examined in accordance with the instructions provided by the manufacturer, and measurements were taken based on the optical density at 450 nm.

mPGES-1 = target: T1, mPGES-1 (Homo sapiens, UniProt O14684); experiment: Cell-free mPGES-1 enzyme assay (microsomal fractions from IL-1β-stimulated A549 cells); assay type: biochemical; settings: for remaining activity at 10 µM: 10 µM compound, read-out: mPGES-1 RA (%) 10 µM (residual activity percentage); for remaining activity at 10 µM / IC50: cell-free, A549 microsomes; for fold less potent than 3j (mPGES-1): from IC50 values
T1 construct: microsomal fractions from IL-1β-stimulated A549 cells served as the enzyme source; endogenous in cells; host or cells: A549 cells (IL-1β-stimulated), microsomal fraction
T1 sequence (O14684 1-152): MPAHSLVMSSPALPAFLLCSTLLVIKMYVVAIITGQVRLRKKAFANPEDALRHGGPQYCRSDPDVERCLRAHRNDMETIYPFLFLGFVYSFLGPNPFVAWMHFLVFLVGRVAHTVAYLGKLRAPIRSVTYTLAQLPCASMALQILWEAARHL
Procedure: A cell-free assay was conducted to evaluate the capacity of compounds […] to act as inhibitors of mPGES-1. In this assay, microsomal fractions from IL-1β-stimulated A549 cells served as the enzyme source ([Gürses et al., 2021]). During the initial screening phase, compounds 3a–j were examined for their effects on mPGES-1 at a concentration of 10 µM.
Microsomal measures of A549 cells expressing mPGES-1 were made in accordance with prior research findings ([Koeberle et al., 2008]). These cells were cultivated in Dulbecco’s Modified Eagle Medium and resuspended in a homogenization buffer. Subsequently, the microsomes were subjected to pre-incubation with either assessed compounds or a carrier solution containing 0.1 percent DMSO. The enzymatic process was halted by introducing FeCl3, citric acid, and 11-PGE2 as an internal standard. The quantities of Prostaglandin E2 (PGE2) were measured via RP-HPLC methodologies.

PGE2 = experiment: Rat serum PGE2 after carrageenan (ELISA); assay type: in vivo; settings: 4 hours after subcutaneous carrageenan; for PGE2 serum concentration: mean ± SE
Text: Inhibiting PGE2 is a crucial strategy in anti-inflammatory therapy, playing a pivotal role in managing inflammation and its associated conditions.
as §1

soya bean 5-LOX = target: T2, soya bean 5-LOX (Glycine max, UniProt P08170); experiment: 5-LOX enzyme assay (EIA kit, Cayman 760700); assay type: biochemical
T2 construct: purchased Cayman Chemical, Ann Arbor, Michigan, USA 760700
T2 sequence (P08170 1-839): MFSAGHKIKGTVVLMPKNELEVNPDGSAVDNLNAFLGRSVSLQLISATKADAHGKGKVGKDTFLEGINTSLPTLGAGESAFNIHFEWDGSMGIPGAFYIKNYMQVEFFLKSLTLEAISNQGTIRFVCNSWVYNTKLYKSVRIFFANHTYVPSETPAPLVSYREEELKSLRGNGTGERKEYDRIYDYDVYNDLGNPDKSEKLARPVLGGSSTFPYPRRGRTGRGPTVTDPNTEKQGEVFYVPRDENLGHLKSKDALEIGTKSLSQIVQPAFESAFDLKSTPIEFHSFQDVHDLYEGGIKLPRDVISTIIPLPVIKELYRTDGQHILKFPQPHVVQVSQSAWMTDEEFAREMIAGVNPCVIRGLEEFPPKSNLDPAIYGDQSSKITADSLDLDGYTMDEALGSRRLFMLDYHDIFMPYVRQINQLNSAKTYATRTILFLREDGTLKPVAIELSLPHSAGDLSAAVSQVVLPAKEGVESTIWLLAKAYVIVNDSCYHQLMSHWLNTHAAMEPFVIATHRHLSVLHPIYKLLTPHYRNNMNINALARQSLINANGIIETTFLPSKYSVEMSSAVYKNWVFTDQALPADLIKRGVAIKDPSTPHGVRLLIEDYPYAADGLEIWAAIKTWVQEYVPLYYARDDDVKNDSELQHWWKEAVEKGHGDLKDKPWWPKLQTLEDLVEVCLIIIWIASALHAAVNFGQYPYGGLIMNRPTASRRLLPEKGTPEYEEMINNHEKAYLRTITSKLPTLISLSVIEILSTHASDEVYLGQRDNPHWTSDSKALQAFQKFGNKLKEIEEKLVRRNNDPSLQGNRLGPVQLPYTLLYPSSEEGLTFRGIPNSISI
Text: The capacity of compounds 3a–j to inhibit the enzyme 5-lipoxygenase (5-LOX) has been investigated ([Youssif et al., 2019]).
The study used an enzyme immune assay (EIA) kit (catalogue no. 760700, Cayman Chemical, Ann Arbor, Michigan, USA) to evaluate the inhibitory activity of target analogues against soya bean 5-LOX, ensuring compliance with manufacturer’s instructions and protocols, and calculating IC50 values ([Roschek et al., 2009]).

[1] = test system: carrageen-induced paw edema; experiment: Carrageenan-induced paw edema bioassay; assay type: in vivo, rat; parameters: concentration or dose not given beside the values; settings: for % Of edema inhibition 1 h: 1 h after carrageenan injection; for % Of edema inhibition 3 h: 3 h after carrageenan injection; for % Of edema inhibition 5 h: 5 h after carrageenan injection
Procedure: The compounds’ efficacy was measured as edema inhibition percentage (EI %) after 1, 3, and 5 h of carrageenan injection vs. the conventional medicine Celecoxib.
Compounds 3c, 3e, 3h, and 3j were chosen for in vivo anti-inflammatory testing using the carrageen-induced paw edema bioassay method described by [Winter et al, (1962)]. The compounds’ efficacy was measured as edema inhibition percentage (EI%) after 1, 3, and 5 h of carrageenan injection vs. the conventional medicine Celecoxib.

IL-6 = experiment: Rat serum IL-6 after carrageenan (ELISA); assay type: in vivo; settings: for IL-6 serum concentration: mean ± SE
Text: as §1

rat intestinal mucosa = experiment: Gastric ulcerogenic activity (macroscopic inspection); assay type: in vivo; parameters: Score: Severity lesions: scale not given here; settings: oral 10 mg/kg
Procedure: The two most common side effects of long-term NSAID use are gastrointestinal erosion and ulcers ([Hendawy et al., 2021]). As a result, we were curious about the ulcerogenic potential of the most efficacious drugs, 3e and 3j, when given orally. The ulcerogenic effects of 3e and 3j were assessed by macroscopic inspection of rat intestinal mucosa after oral administration of 10 mg/kg of 3e, 3j, indomethacin, and celecoxib ([Manivannan and Chaturvedi, 2011]).
The ulcerogenic effects of compounds 3e and 3j were evaluated by macroscopic examination of rat intestinal mucosa after oral administration of 10 mg/kg of these compounds and indomethacin and celecoxib ([Manivannan and Chaturvedi, 2011]). See Appendix A for details.

SMILES | remaining activity at 10 µM (mPGES-1) | IC50 (mPGES-1) | IC50 (soya bean 5-LOX) | melting point | % Of edema inhibition 1 h [1] | % Of edema inhibition 3 h [1] | % Of edema inhibition 5 h [1] | further results
COc1ccc(C2NC(=S)NC(C)=C2C(=O)Nc2ccc(S(N)(=O)=O)cc2)cc1OC (stereo not drawn) [Compound 3e, 4-[3,4-dimethoxyphenyl]-6-methyl-N-[4-sulfamoylphenyl]-2-thioxo-1,2,3,4-tetrahydropyrimidine-5-carboxamide] | 28.6% | 0.97 µM | 2.07 µM | 272 to 274 °C | 35% | 57% | 65% | TNFα %inhibition (TNF-α): 67%; TNFα serum concentration (TNF-α): 78.10 ± 2.20 ^b pg/mL; PGE2 %inhibition (PGE2): 72.70% and 73%; PGE2 serum concentration (PGE2): 83.50 ± 2.30 ^b pg/mL; IL-6 %inhibition (IL-6): 75%; IL-6 serum concentration (IL-6): 94.10 ± 2.75 ^b pg/mL; Score: No. of gastric ulcers (rat intestinal mucosa): 0.60 ± 0.01; Score: Severity lesions (rat intestinal mucosa): 1.00 ± 0.01; Ulceration in the isolated rat stomach (in words) (rat intestinal mucosa): mild hyperemia but no widespread ulceration
COc1cc(C2NC(=O)NC(C)=C2C(=O)Nc2ccc(S(N)(=O)=O)cc2)cc(OC)c1OC (stereo not drawn) [Compound 3i, 6-methyl-2-oxo-N-[4-sulfamoylphenyl]-4-[3,4,5-trimethoxyphenyl]-1,2,3,4-tetrahydropyrimidine-5-carboxamide] | 53.6% | 2.89 µM | 3.97 µM | 260 to 263 °C |  |  |  | 
Cc1ccc(-c2cc(C(F)(F)F)nn2-c2ccc(S(N)(=O)=O)cc2)cc1 [Celecoxib, reference compound] |  |  |  |  | 40% | 54% | 22% | Score: No. of gastric ulcers (rat intestinal mucosa): 2.5 ± 0.10; Score: Severity lesions (rat intestinal mucosa): 5.80 ± 0.20
CC1=C(C(=O)Nc2ccc(S(N)(=O)=O)cc2)C(c2ccccc2)NC(=S)N1 (stereo not drawn) [Compound 3a, 6-methyl-4-phenyl-N-[4-sulfamoylphenyl]-2-thioxo-1,2,3,4-tetrahydropyrimidine-5-carboxamide] | 89.2% | 4.28 µM | 5.85 µM | 266 to 269 °C |  |  |  | 
COc1ccc2c(c1)c(CC(=O)O)c(C)n2C(=O)c1ccc(Cl)cc1 [Indomethacin, reference compound] |  |  |  |  |  |  |  | Score: No. of gastric ulcers (rat intestinal mucosa): 8.5 ± 0.40; Score: Severity lesions (rat intestinal mucosa): 12.50 ± 0.70
COc1ccc(C2NC(=S)NC(C)=C2C(=O)Nc2ccc(S(N)(=O)=O)cc2)cc1O (stereo not drawn) [Compound 3c, 4-[3-hydroxy-4-methoxyphenyl]-6-methyl-N-[4-sulfamoylphenyl]-2-thioxo-1,2,3,4-tetrahydropyrimidine-5-carboxamide] | 33.6% | 1.53 µM | 2.87 µM | 296 °C | 29% | 46% | 55% | fold less potent than 3j (mPGES-1) (mPGES-1): 1.5 fold
Cc1cnc(NC(=O)C2=C(O)c3ccccc3S(=O)(=O)N2C)s1 [Meloxicam, reference compound] |  |  |  |  |  |  |  | TNFα %inhibition (TNF-α): 62%; TNFα serum concentration (TNF-α): 88.50 ± 2.40^ab pg/mL; PGE2 %inhibition (PGE2): 73%; PGE2 %inhibition (PGE2; listed as meloxicam): 72.60%; PGE2 serum concentration (PGE2): 82.50 ± 2.58 ^b pg/mL; IL-6 %inhibition (IL-6): 70%
COc1cc(C2NC(=S)NC(C)=C2C(=O)Nc2ccc(S(N)(=O)=O)cc2)cc(OC)c1OC (stereo not drawn) [Compound 3d, 6-Methyl-N-[4-sulfamoylphenyl]-2-thioxo-4-[3,4,5-trimethoxyphenyl]-1,2,3,4-tetrahydropyrimidine-5-carboxamide] | 46.8% | 2.7 µM | 3.65 µM | 270 to 272 °C |  |  |  | 

The next lines start with results.

remaining activity at 10 µM (mPGES-1) | IC50 (mPGES-1) | IC50 (soya bean 5-LOX) | melting point | SMILES | % Of edema inhibition 1 h [1] | % Of edema inhibition 3 h [1] | % Of edema inhibition 5 h [1] | further results
91.4% | 4.78 µM | 5.34 µM | 258 to 260 °C | CC1=C(C(=O)Nc2ccc(S(N)(=O)=O)cc2)C(c2ccccc2)NC(=O)N1 (stereo not drawn) [Compound 3f, 6-methyl-2-oxo-4-phenyl-N-[4-sulfamoylphenyl]-1,2,3,4-tetrahydropyrimidine-5-carboxamide] |  |  |  | 
64.7% | 3.45 µM | 4.45 µM | 270 to 272 °C | CC1=C(C(=O)Nc2ccc(S(N)(=O)=O)cc2)C(c2cccc(O)c2)NC(=O)N1 (stereo not drawn) [Compound 3g, 4-[3-hydroxyphenyl]-6-methyl-2-oxo-N-[4-sulfamoylphenyl]-1,2,3,4-tetrahydropyrimidine-5-carboxamide] |  |  |  | 
69.2% | 3.89 µM | 4.82 µM | 288 to 291 °C | CC1=C(C(=O)Nc2ccc(S(N)(=O)=O)cc2)C(c2cccc(O)c2)NC(=S)N1 (stereo not drawn) [Compound 3b, 4-[3-hydroxyphenyl]-6-methyl-N-[4-sulfamoylphenyl]-2-thioxo-1,2,3,4-tetrahydropyrimidine-5-carboxamide] |  |  |  | 
31.2% | 1.32 µM | 2.64 µM | 275 to 279 °C | COc1ccc(C2NC(=O)NC(C)=C2C(=O)Nc2ccc(S(N)(=O)=O)cc2)cc1O (stereo not drawn) [Compound 3h, 4-[3-hydroxy-4-methoxyphenyl]-6-methyl-2-oxo-N-[4-sulfamoylphenyl]-1,2,3,4-tetrahydropyrimidine-5-carboxamide] | 30% | 49% | 58% | TNFα %inhibition (TNF-α): 56%; TNFα serum concentration (TNF-α): 102.70 ± 2.90^ab pg/mL; fold less potent than 3j (mPGES-1) (mPGES-1): 1.5 fold; PGE2 %inhibition (PGE2): 69%; PGE2 serum concentration (PGE2): 95.00 ± 2.50^abc pg/mL; IL-6 %inhibition (IL-6): 63%; IL-6 serum concentration (IL-6): 140.70 ± 4.20^ab pg/mL
